This is an account of results in US10392423B2, “Peptide-based inhibitors of MLL/SET1 family core complexes” (The Research Foundation for the State University of New York, priority 2017, dated 2019).

Test [1] concerns the target T1, WDR5 (Homo sapiens, UniProt P61964).
T1 construct: the experimental cell containing full-length WDR5 (20 μM); His; made in house; host or cells: Escherichia coli Rosetta II (DE3) pLysS
To be noted: ITC; reported values of other inhibitors; read-out: Dissociation Constant Kd towards WDR5; cited from earlier work. In general terms: ITC needs no label: the signal is the heat of the interaction.

The target in test [2] is T1, WDR5. The test can be described thus: Isothermal titration calorimetry (ITC) binding to WDR5. As for the experimental part:
Isothermal titration calorimetry (ITC). Purified full-length WDR5 and Win6mer peptide were extensively dialyzed in separate Micro Float-A-Lyzer® Dialysis Devices, MWCO 500-1000 Da (Spectrum Labs) against sample buffer consisting of 20 mM Tris pH 7.5, 300 mM NaCl, 1 mM TCEP, 1 μM ZnCl2 buffer. ITC experiments were carried out at 20° C. using a VP-ITC micro-calorimeter (MicroCal). After an initial delay of 120 sec, Win6mer (200 μM) was titrated into the experimental cell containing full-length WDR5 (20 μM) over the course of 45 injections, 5 μL each. Reference power was set to 10 μCal/sec and stirring speed was set to 295 rpm. Data were integrated using NITPIC. SEDPHAT was used to fit the integrated data to a single-site heterogeneous association model, using simulated annealing and Maxquardt-Levenberg algorithms. Automatic confidence interval search with projection method was applied to estimate the error of the determined thermodynamic parameters. Confidence interval was set to 2σ (95%). ITC figure was generated using GUSSI.

The test system of test [3] is isolated SET1 family SET domains. Nature of the test: Isolated SET domain methyltransferase activity with Win6mer (radiometric, fluorography/LSC). Type of test: biochemical, human. To be noted: 100 μM Win6mer; isolated SET domains without WRAD. Here is the method: Methyltransferase Assays. MLL core complex Win motif mutants. […] Reactions were quenched with SDS-loading buffer and separated by SDS-PAGE using a 4-12% Bis-Tris gel (Life Technologies) run at 200V for 30 minutes. The gels were enhanced at room temperature for 30 minutes (Enlightning, Perkin Elmer Inc.) then dried for 2.5 hours at 72° C. under constant vacuum. The dried gels were exposed to film (Kodak Biomax MS Film) at −80° C. for 4-24 hours prior to developing. Liquid scintillation counting (LSC) was performed by excising gel bands corresponding to histone H3 peptides, which were dissolved in 750 μL of Solvable (Perkin Elmer Inc.), incubated at room temperature for 30 minutes followed by incubation at 50° C. for 3 hours. The solubilized volume of each sample was transferred to liquid scintillation vials containing 10 mL of Ultima Gold XL liquid scintillation cocktail (Perkin Elmer Inc.). Samples were dark adapted for 1 hour then counted for 5 minutes each with a two-sigma error cut-off using an all-purpose scintillation counter (Beckman Coulter).
MLL SET domains treated with Win6mer. Isolated SET1 family SET domains (5 μM) were incubated with 1 μCi of ^3H-AdoMet (Perkin Elmer Inc.) and 100 μM of H3K4me0, H3K4me1, or H3K4me2 peptides, with and without 100 μM Win6mer, in Assay Buffer at 15° C. for 8 hours. Reactions were quenched with SDS-loading buffer. […]

Test [4] concerns the target T2, SET1 family core complex assembly (WDR5, RbBP5, ASH2L) (Homo sapiens, UniProt P61964).
T2 construct: host or cells: MCF-7 cell extract
Nature of the test: GST pull-down of endogenous WRAD components from MCF-7 cell extracts with or without Win6mer. Type of test: binding. The conditions noted are these: 10 μM Win6mer. As for the experimental part: For pull-down assays using cell extracts, a 3 μM concentration of each GST-tagged SET domain was incubated with 100 μg of MCF-7 cell extract for 16 hours at 4° C. Following the initial incubation, 20 μL of a 50:50 slurry of glutathione agarose beads was added to each sample and incubated for an additional 2 hours at 4° C. Samples were washed 3× in radioimmunoprecipitation (RIPA) buffer. Samples were eluted from beads by boiling the samples at 95° C. in SDS-loading buffer for 10 minutes. Samples of the supernatant were separated on a 4-12% Bis-Tris gel and transferred to a PVDF membrane at 30V for 1 hour. PVDF membranes were blocked for 1 hour with a 5% non-fat milk solution then incubated with primary antibody (1:2,000) for 1 hour at room temperature. Blots were washed 4 times then incubated with an HRP-conjugated anti-rabbit secondary antibody (1:5,000) for 1 hour at room temperature. Blots were washed an additional 4 times, then visualized by chemiluminesence (Clarity Western, BioRad) on a BioRad ChemiDoc MP Imager using the chemiluminesence setting.

The target in the next test is T3, MLL4 core complex (Homo sapiens, UniProt P61964).
T3 construct: Full-length WRAD constructs in pHis parallel expression vectors; His; made in house; host or cells: Escherichia coli Rosetta II (DE3) pLysS
The test can be described thus: Core complex methyltransferase inhibition, scintillation proximity assay. Type of test: biochemical. The conditions noted are these: for IC50: 2 μM core complex, Win6mer up to 50 μM, read-out: Inhibition Efficiency, IC50. As for the experimental part: (§1) MLL Core Complex inhibition by Win6mer. Assay conditions: MLL core complexes were reconstituted by mixing purified GST-SET domains (MLL1, MLL4, MLL2, MLL3, SETd1A, and SETd1B) with WDR5, RbBP5, ASH2L, and DPY-30 in stoichiometric amounts (GST-SET:W:R:A:D 1:1:1:1:2). The activity of each core complex was assessed under the following conditions: 2 μM SET1 core complex, 80 μM biotinylated H3 substrate peptide, 0.68 μM ^3H-AdoMet (0.5 μCi) at 15° C. in Assay Buffer (50 mM Tris pH 8.5, 200 mM NaCl, 5 mM MgCl2, 5% glycerol), in a total volume of 10 μL. Core complex- or H3 peptide-only reactions incubated with ^3H-AdoMet served as background controls. Reactions were quenched with 167 mM EDTA (ethylenediaminetetraacetic acid). Each sample was diluted in 50 μL Buffer 2 containing 0.2 mg/mL BSA and then transferred to 96-well streptavidin-coated FlashPlate® Microplates (Perkin Elmer). Samples were incubated overnight at 4° C. to allow binding of the biotinylated H3 peptide to the streptavidin-coated surface prior to scintillation counting in Hidex Sense microplate reader (LabLogic). Determination of linear ranges: The activity of MLL core complexes towards H3K4me0, H3K4me1, or H3K4me2 substrate peptides was assayed as described above. Reactions were quenched at varying time points with 167 mM EDTA and prepared for scintillation counting on Streptavidin FlashPlates®. A plot of counts per minute (CPM) vs. time was constructed from which the linear range was determined. Single time points within the linear range were selected for each SET1 core complex for performing inhibition studies: H3K4me0: MLL1, MLL2*, SETd1A, and SETd1B*—5 min, MLL4—3 min, MLL3—15 min. H3K4me1: MLL1—5 min, MLL4—3 min, SETd1A—15 min, SETd1B—45 min. H3K4me2: SETd1A—2 hr, SETd1B—1 hr. (*1 μM of MLL2 and SETd1B core complex were used for H3K4me0 reactions). Dose response curves: Inhibition studies were performed in order to determine the efficiency of Win6mer as an MLL core complex inhibitor. The activity of each MLL core complex towards H3 substrate peptides was assessed (as described above) with increasing doses of Win6mer (0, 0.005, 0.05, 0.10, 0.5, 1.0, 2.5, 5.0, 10.0, and 50 μM). Reactions were quenched with 167 mM EDTA at the determined time points and prepared for scintillation counting on streptavidin-coated FlashPlastes® as described above.
(§2) The activity of SET1 core complexes at each Win6mer concentration point was normalized to the activity of the uninhibited core complex to obtain the relative methyltransferase activity. Inhibition data were plotted as relative methyltransferase activity vs. log [Win6mer] (nM). The Win6mer IC50 values for MLL1 and SETd1A core complexes were determined by fitting the data to a dose response with variable slope equation in Sigma Plot.

In the next test the target is T4, MLL2 core complex (Homo sapiens, UniProt P61964).
T4 construct: Full-length WRAD constructs in pHis parallel expression vectors; His; made in house; host or cells: Escherichia coli Rosetta II (DE3) pLysS
Described as above. Type of test: biochemical. The conditions noted are these: H3K4me0 substrate. As for the experimental part:
as §1, §2

Another test deals with T5, SETd1B core complex (Homo sapiens, UniProt P61964).
T5 construct: Full-length WRAD constructs in pHis parallel expression vectors; His; made in house; host or cells: Escherichia coli Rosetta II (DE3) pLysS
The test is described as above. The conditions noted are these: for IC50: Win6mer up to 50 μM, read-out: Inhibition Efficiency, IC50. Type of test: biochemical. As for the experimental part: as §1, §2

Another test concerns the target T6, MLL3 core complex (Homo sapiens, UniProt P61964).
T6 construct: Full-length WRAD constructs in pHis parallel expression vectors; His; made in house; host or cells: Escherichia coli Rosetta II (DE3) pLysS
Described as above. Type of test: biochemical. The conditions noted are these: H3K4me0 substrate. Here is the method: as §1, §2

The target of the next test is T7, MLL1 core complex (Homo sapiens, UniProt P61964).
T7 construct: Full-length WRAD constructs in pHis parallel expression vectors; His; made in house; host or cells: Escherichia coli Rosetta II (DE3) pLysS
Described as above. Type of test: biochemical. As for the experimental part: as §1, §2

Molecules are shown by their SMILES. “And” between values parts separate entries of the source, which are not always exact repeats. Identical values can stand only once. Like-named read-outs stand apart in the source and are kept apart here. Bounds are passed on as bounds.

Take `COC(=O)c1ccc(N2CCN(C)CC2)c(NC(=O)c2cccc(OC)c2)c1` [WDR5-0103]: the Kd (in general, the equilibrium constant for the complex coming apart) on WDR5 [1] is 0.45 µM.
As to `CC(=O)N[C@@H](C)C(=O)N[C@@H](CCCNC(=N)N)C(=O)N[C@H](C(=O)N[C@@H](CCC(=O)O)C(=O)N[C@H](C(=O)N[C@@H](Cc1ccc(O)cc1)C(N)=O)C(C)C)[C@@H](C)O` [Win6mer, Ac-ARTEVY-NH2], the “increase in binding affinity over the best naturally occurring Win motif sequence” value on WDR5 [2] is on record as roughly 18 fold. The equilibrium dissociation constant (Kd) on WDR5 [2] (read-out: Dissociation Constant Kd towards WDR5) is ~0.003 µM and 0.0029 µM. In addition, the “effect on intrinsic monomethyltransferase activity of SET1 family members” value in [3] is reported as “did not affect”. Also, the “RbBP5/ASH2L binding of MLL2, MLL3, MLL4 and SETd1B” value in [4] is “only a modest reduction”. Besides, the “RbBP5/ASH2L interaction with MLL1 and SETd1A complexes” value in [4] is “near total loss”. Besides, in test [4], the “ability of all six SET1 family members to interact with endogenous WDR5” value is listed as “greatly reduced”. Besides, the “methyltransferase activity of core complex on treatment” value at MLL4 core complex (H3K4me0 substrate), on MLL2 core complex, at SETd1B core complex (H3K4me0 substrate) and on MLL3 core complex was “uninhibited” in each case. The IC50 (commonly the concentration that inhibits the measured activity by half) was greater than 50 µM at MLL4 core complex (H3K4me0 substrate); greater than 50 µM on MLL4 core complex (H3K4me1 substrate); greater than 50 µM at MLL2 core complex (1 μM core complex, Win6mer up to 50 μM, read-out: Inhibition Efficiency, IC50); greater than 50 µM on SETd1B core complex (H3K4me0 substrate, 1 μM core complex); greater than 50 µM on SETd1B core complex (H3K4me1 substrate, 2 μM core complex); greater than 50 µM at SETd1B core complex (H3K4me2 substrate, 2 μM core complex). For the same compound, the IC50 at MLL3 core complex (2 μM core complex, Win6mer up to 50 μM, read-out: Inhibition Efficiency, IC50) is greater than 50 µM; on MLL1 core complex (1.8 μM of enzyme complex assayed, read-out: IC50), 2.2 µM; on MLL1 core complex (2 μM of enzyme complex assayed, read-out: average IC50), 2.2 µM; at MLL1 core complex (H3K4me1 substrate, 2 μM core complex, read-out: Inhibition Efficiency, IC50 [95% confidence interval]) it was 2.2 µM.
